The test system of the experiment is BaF3 V617F cells; UKE-1. Kind of experiment: Proliferation Assay (Cell Titer-Glo; Example 7). The experiment is classed as cell-based. The conditions noted are these: proliferation 72 hours, inhibit JAK2 activity, cell line (BaF3 V617F or UKE-1) not stated. How it is done:
BaF3 V617F cells are maintained and plated in RPMI with 10% FBS. Plating density for these cells is 1×10^5 cells/mL.
UKE-1 are maintained and plated in Iscove's DMEM containing 10% FBS, 10% equine serum, 1% penicillin/streptomycin and 1 uM hydrocortisone. Plating density for these cells is 0.4×10^6 cells/mL
The cells were resuspended in a corresponding medium at a required cell density (see above). 100μ of cell suspension was added to each well of a flat bottom 96 well white plate. The compound was serially diluted in DMSO from 5 mM in 3-fold dilutions, and then diluted 1:250 in the RPMI 1640 medium containing 5% FBS and pen/strep. 100 μL of resulting 2× compound solution was added per well in duplicate and the cells were allowed to proliferate for 72 hours at 37° C.
Proliferation was measured using Cell Titer-Glo. The substrate was thawed and allowed to come to room temperature. After removal of top 100 μL of medium from each well, 100 μL of the premixed Cell Titer-Glo reagent was added to each well. The plates were mixed on an orbital shaker for three minutes to induce lysis and incubated at ambient temperature for an additional five minutes to allow the signal to equilibrate. The Luminescence was read on the Wallac Plate Reader.
The results of the ability of the compounds of the invention to inhibit JAK2 activity, when tested in the above assay, are shown in the following Table XI wherein the level of activity (i.e., the IC50) for each compound is indicated in Table XI. The compound numbers in Table XI refers to the compounds disclosed herein as being prepared by the methods disclosed herein: […]
Consider “5-Chloro-N4-[4-(N-cyclopropylsulfonylamino)methylphenyl]-N2-[3-methyl-4-(N-methylpiperizin-4-yl)phenyl]-2,4-pyrimidinediamine [II-203]”, for which the IC50 came to 1500 nM. This lies in the single-digit micromolar range.
In turn, `Cc1cnc(Nc2ccc(N3CCN(C)CC3)cc2C(F)(F)F)nc1Nc1ccc(CCNS(=O)(=O)C2CC2)cc1` [II-70] registered a half-maximal inhibitory concentration (IC50) of 1390 nM.
On to `CCNS(=O)(=O)NCc1cccc(Nc2nc(Nc3cc(C)c(OCC)c(C)c3)ncc2Cl)c1` [II-130, 5-Chloro-N2-(3,5-dimethyl-4-ethoxyphenyl)-N4-[(3-(ethylamino)sulfonylamino)methylphenyl]-2,4-pyrimidinediamine], for which the concentration for half-maximal inhibition (IC50) was 140 nM. This IC50 lies about 9.9-fold lower than the previous one.
The compound `CCNS(=O)(=O)NCc1ccc(Nc2nc(Nc3cc(Cl)c(OC)c(OC)c3)ncc2Cl)cc1` [II-113, 5-Chloro-N2-(3-chloro-4,5-dimethoxyphenyl)-N4-[(4-(ethylamino)sulfonylamino)methylphenyl]-2,4-pyrimidinediamine] came in with an IC50 of 286 nM.
`Cc1cc(Nc2ncc(C)c(Nc3ccc(CNS(=O)(=O)C4CC4)cc3)n2)ccc1N1CCN(C)CC1` [II-202, 5-Methyl-N4-[4-(N-cyclopropylsulfonylamino)methylphenyl]-N2-[3-methyl-4-(N-methylpiperizin-4-yl)phenyl]-2,4-pyrimidinediamine]: the midpoint of inhibition, the IC50, lay at 1440 nM.
In the case of `Cc1cc(CNS(=O)(=O)NC2CC2)ccc1Nc1nc(Nc2ccc(N3CCN(C)CC3)c(C)c2)ncc1Cl` [II-181, 5-Chloro-N4-[2-methyl-4-((N-cyclopropylamino)sulfonylamino)methylphenyl]-N2-[3-methyl-4-(4-methyl-1-piperazinyl)phenyl]-2,4-pyrimidinediamine], the midpoint of inhibition, the IC50, lay at 4330 nM.
Take `Cc1cc(Nc2ncc(C(F)(F)F)c(Nc3ccc(CNS(=O)(=O)C4CC4)cc3)n2)ccc1N1CCN(C)CC1` [II-128, N4-[4-(N-Cyclopropylsulfonylamino)methylphenyl]-N2-[3-methyl-4-(4-methyl-1-piperazinyl)phenyl]-5-trifluoromethyl-2,4-pyrimidinediamine]: the IC50 stood at 755 nM.
“(1R)—N2-(3,5-Dichloro-4-methoxyphenyl))-5-methyl-N4-[1-(methylsulfonyl)aminoindan-6-yl]-2,4-pyrimidinediamine [V-13]” showed an IC50 of 19300 nM.
`Cc1cc(Nc2ncc(Cl)c(Nc3ccc(CNS(=O)(=O)NC4CC4)cc3)n2)ccc1N1CCN(C)CC1` [II-168, 5-Chloro-N4-[4-((N-cyclopropylamino)sulfonylamino)methylphenyl]-N2-[3-methyl-4-(4-methyl-1-piperazinyl)phenyl]-2,4-pyrimidinediamine] came in with an IC50 of 2050 nM.
In turn, `CN1CCN(c2ccc(Nc3ncc(Cl)c(Nc4ccc(CNS(=O)(=O)NC5CC5)cc4)n3)cn2)CC1` [II-169, 5-Chloro-N4-[4-((N-cyclopropylamino)sulfonylamino)methylphenyl]-N2-[6-(4-methyl-1-piperazinyl)-3-pyridinyl]-2,4-pyrimidinediamine] came in with an IC50 of 348 nM.
Compound `Cc1cc(CNS(=O)(=O)C2CC2)ccc1Nc1nc(NC2=CC(C)C(C)(OCCN3CCOCC3)C=C2)ncc1C` (stereo not shown) [II-161, N2-[3,4-Dimethyl-4-(2-(4-morpholinyl)ethoxy)phenyl]-5-methyl-N4-[2-methyl-4-(N-cyclopropylsulfonylamino)methylphenyl]-2,4-pyrimidinediamine] returned an IC50 of 149 nM.
Next, “5-Methyl-N4-[4-(N-cyclopropylsulfonylamino)methylphenyl]-N2-[2,4-dimethyl-5-chlorophenyl]-2,4-pyrimidinediamine [II-212]”: 2200 nM; `CCS(=O)(=O)N1CCc2c(cccc2Nc2nc(Nc3cc(OC)c(OC)c(OC)c3)ncc2Cl)C1` [VI-5, 5-Chloro-N4-[1,2,3,4-tetrahydro-2-(ethylsulfonyl)-5-isoquinolinyl]-N2-(3,4,5-trimethoxyphenyl)-2,4-pyrimidinediamine]: 798 nM; `Cc1cnc(Nc2ccc(C3CCN(C)CC3)cc2)nc1Nc1ccc2c(c1)[C@H](NS(C)(=O)=O)CC2` [V-11, (1R)-5-Methyl-N2-[4-(1-methyl-4-piperidinyl)pheny]-N4-[1-(methylsulfonyl)aminoindan-6-yl]-2,4-pyrimidinediamine]: 2160 nM.
Next, `Cc1cnc(Nc2ccc(N3CCN(C4CC5CCC4C5)CC3)c(F)c2)nc1Nc1ccc(CNS(=O)(=O)C2CC2)cc1` (stereo not shown) [II-78, N-(4-(2-(4-(4-(bicyclo[2.2.1]heptan-2-yl)piperazin-1-yl)-3-fluorophenylamino)-5-methylpyrimidin-4-ylamino)benzyl)cyclopropanesulfonamide]: 371 nM.
`O=S(=O)(NCc1ccc(Nc2nc(Nc3ccc(CN4CCOCC4)cc3)ncc2Cl)cc1)C1CC1` [II-223, 5-Chloro-N4-[4-(N-cyclopropylsulfonylamino)methylphenyl]-N2-[4-(1-morpholinomethyl)phenyl]-2,4-pyrimidinediamine] came in with an IC50 of 733 nM.
On to `CN1CCC(c2ccc(Nc3ncc(Cl)c(Nc4cccc(CNS(=O)(=O)C5CC5)c4)n3)cc2)CC1` [II-190, 5-Chloro-N4-[3-(N-cyclopropylsulfonylaminomethyl)phenyl]-N2-[4-(N-methylpiperidin-4-yl)phenyl]-2,4-pyrimidinediamine], for which the IC50 stood at 701 nM.
Next, `CCNS(=O)(=O)NCc1ccc(Nc2nc(Nc3cc(C)c(OC)c(Cl)c3)ncc2C)cc1` [II-118, N2-(3-Chloro-4-methoxy-5-methylphenyl)-N4-[(4-(ethylamino)sulfonylamino)methylphenyl]-5-methyl-2,4-pyrimidinediamine]: 229 nM.
For the compound `Cc1cnc(Nc2ccc(N3CCN(C)CC3)cc2)nc1Nc1ccc(CCNS(=O)(=O)C2CC2)cc1` [II-67], half-maximal inhibition (IC50) required 717 nM.
`CCNS(=O)(=O)NCc1ccc(Nc2nc(Nc3cc(OC)c(OC)c(OC)c3)ncc2Cl)cc1` [II-112, 5-Chloro-N4-[(4-(ethylamino)sulfonylamino)methylphenyl]-N2-(3,4,5-trimethoxyphenyl)-2,4-pyrimidinediamine] had an IC50 of 431 nM.
`COc1c(C)cc(Nc2ncc(C(F)(F)F)c(Nc3ccc(CNS(=O)(=O)C4CC4)cc3)n2)cc1C` [II-126, N4-[4-(N-Cyclopropylsulfonylamino)methylphenyl]-N2-(3,5-dimethyl-4-methoxyphenyl)-5-trifluoromethyl-2,4-pyrimidinediamine] showed an IC50 of 1510 nM.
In turn, `Cc1cnc(Nc2cc(C)c(OC(C)C)c(C)c2)nc1Nc1ccc(CNS(=O)(=O)NC2CC2)cc1` [II-164, N4-[4-((N-Cyclopropylamino)sulfonylamino)methylphenyl]-N2-[3,5-dimethyl-4-(1-methyl)ethoxyphenyl]-5-methyl-2,4-pyrimidinediamine] had a 50% inhibitory concentration (IC50) of 94.8 nM.
Next, `CCNS(=O)(=O)NCc1cccc(Nc2nc(Nc3ccc(N4CCN(C)CC4)cc3)ncc2F)c1` [II-138, N4-[3-((Ethylamino)sulfonylamino)methylphenyl]-5-fluoro-N2-[4-(4-methyl-1-piperazinyl)phenyl]-2,4-pyrimidinediamine]: 726 nM; `Cc1cnc(Nc2ccc(N3CCN(C)CC3)cc2)nc1Nc1ccc(CNS(=O)(=O)NC2CC2)cc1` [II-171, N4-[4-((N-Cyclopropylamino)sulfonylamino)methylphenyl]-5-methyl-N2-[4-(4-methyl-1-piperazinyl)phenyl]-2,4-pyrimidinediamine]: 735 nM.
`COc1c(C)cc(Nc2ncc(Cl)c(Nc3ccc(CNS(=O)(=O)C4CC4)cc3C)n2)cc1C` [II-150, 5-Chloro-N2-(3,5-dimethyl-4-methoxyphenyl)-N4-[2-methyl-4-(N-cyclopropylsulfonylamino)methylphenyl]-2,4-pyrimidinediamine] gave a half-maximal inhibitory concentration (IC50) of 307 nM.
Next, `CCc1cnc(Nc2cc(OC)c(OC)c(OC)c2)nc1Nc1ccc(CNS(=O)(=O)C2CC2)cc1` [II-85, N4-[4-(N-Cyclopropylsulfonylamino)methylphenyl]-5-ethyl-N2-(3-,4,5-trimethoxylphenyl)-2,4-pyrimidinediamine]: 2690 nM; `COc1c(C)cc(Nc2ncc(C)c(Nc3ccc(CNS(=O)(=O)N(C)C)cc3)n2)cc1Cl` [II-101, 5-Methyl-N2-(3-chloro-4-methoxy-5-methylphenyl)-N4-[(4-(dimethylamino)sulfonylamino)methylphenyl]-2,4-pyrimidinediamine]: 194 nM; `CCNS(=O)(=O)NCc1ccc(Nc2nc(Nc3cc(C)c(OC)c(OC)c3)ncc2Cl)cc1` [II-109, 5-Chloro-4-[(4-(ethylamino)sulfonylamino)methylphenyl]-N2-(3,4-dimethoxy-5-methylphenyl)-2,4-pyrimidinediamine]: 151 nM.
`COc1cc(Nc2ncc(C)c(Nc3ccc4c(c3)C(NS(=O)(=O)C3CC3)CC4)n2)cc(OC)c1OC` (racemic) [V-3]: the IC50 was 1640 nM.
As for “5-Chloro-N4-[3,4-dihydro-1,1-dioxide-2H-1,2-benzothiazin-7-yl]-N2-[5-methyl-4-(N-methylpiperizin-4-yl)pyridine-3-yl]-2,4-pyrimidinediamine [VII-4]”, the IC50 was determined as 558 nM.
Turning to `CC1CN(CCOc2ccc(Nc3ncc(Cl)c(Nc4ccc(CCNS(=O)(=O)C5CC5)cc4)n3)cc2)CC(C)O1` (stereo not shown) [II-49], the IC50 came out at 339 nM.

For orientation: IC50 means the concentration needed to halve the response being measured. Higher therefore signals weaker potency in that assay.

The record behind these values is patent publication US8304422B2, “Compositions and methods for inhibition of the JAK pathway” (Rigel Pharmaceuticals, Inc., priority 2007, dated 2012).
